Test results reported in patent US8946238B2, “Pyrazolo[1,5-A]pyrimidines as antiviral agents” (Gilead Sciences, Inc., priority 2011, dated 2015).

Tested on: RSV strain A2
Assay: RSV antiviral cytoprotection assay in Hep2 cells (RSV-induced cytopathic effect, Cell TiterGlo)
Assay type: cell-based, Respiratory Syncytial Virus (RSV)
Details: human respiratory syncytial virus, HEp-2, 0.5 μM compound; RSV A2-infected Hep2 cells; % inhibition calculated from 4-parameter dose response curve, normalized to 0% and 100%; read-out: Percent inhibition at 0.5 μM
Procedure: Antiviral activity against RSV was determined using an in vitro cytoprotection assay in Hep2 cells. […] The method used was similar to methods previously described in published literature (Chapman et al., Antimicrob Agents Chemother. 2007, 51(9):3346-53.)
Hep2 cells were obtained from ATCC (Manassas, VI) and maintained in MEM media supplemented with 10% fetal bovine serum and penicillin/streptomycin. Cells were passaged twice a week and kept at subconfluent stage. Commercial stock of RSV strain A2 (Advanced Biotechnologies, Columbia, Md.) was titered before compound testing to determine the appropriate dilution of the virus stock that generated desirable cytopathic effect in Hep2 cells.
For antiviral tests, Hep2 cells were seeded into 96-well plates 24 hours before the assay at a density of 3,000 cells/well. On a separate 96 well plate, compounds to be tested were serially diluted in cell culture media. Eight concentrations in 3-fold serial dilution increments were prepared for each tested compound and 100 uL/well of each dilution was transferred in duplicate onto plates with seeded Hep2 cells. Subsequently, appropriate dilution of virus stock previously determined by titration was prepared in cell culture media and 100 uL/well was added to test plates containing cells and serially diluted compounds. Each plate included three wells of infected untreated cells and three wells of uninfected cells that served as 0% and 100% virus inhibition control, respectively. Following the infection with RSV, testing plates were incubated for 4 days in a tissue culture incubator. After the incubation, RSV-induced cytopathic effect was determined using a Cell TiterGlo reagent (Promega, Madison, Wis.) followed by a luminescence read-out. The percentage inhibition was calculated for each tested concentration relative to the 0% and 100% inhibition controls and the EC50 value for each compound was determined by non-linear regression as a concentration inhibiting the RSV-induced cytopathic effect by 50%. Ribavirin (purchased from Sigma, St. Louis, Mo.) was used as a positive control for antiviral activity.
Compounds were also tested for antiviral activity against RSV in Hep2 cells using a 384 well format. Compounds were diluted in DMSO using a 10-step serial dilution in 3-fold increments via automation in 4 adjacent replicates each. Eight compounds were tested per dilution plate. 0.4 uL of diluted compounds were then stamped via Biomek into 384-well plates (Nunc 142761 or 164730 w/lid 264616) containing 20 μL of media (Mediatech Inc. MEM supplemented with Glutamine, 10% FBS and Pen/Strep). DMSO and a suitable positive control compound, such as 80 μM GS-329467 or 10 μM 427346 was used for the 100% and 0% cell killing controls, respectively.
Hep2 cells (1.0×10^5 cells/ml) were prepared as above in batch to at least 40 mls excess of the number of sample plates (8 mls cell mix per plate) and infected with vendor supplied (ABI) RSV strain A2 to arrive at an MOI of 1:1000 (virus:cell #) or 1:3000 (vol virus: cell vol). Immediately after addition of virus, the RSV infected Hep2 cell suspension was added to each stamped 384-well plate at 20 μl per well using a uFlow dispenser, giving a final volume of 40 μL/well, each with 2000 infected cells. The plates were then incubated for 5 days at 37° C. and 5% CO2. Following incubation, the plates were equilibrated to room temperature in a biosafety cabinet hood for 1.5 hrs and 40 μL of Cell-Titer Glo viability reagent (Promega) was added to each well via uFlow. Following a10-20 minute incubation, the plates were read using an EnVision or Victor Luminescence plate reader (Perkin-Elmer). The data was then uploaded and analyzed on the Bioinformatics portal under the RSV Cell Infectivity and 8-plate EC50-Hep2-384 or 8-plate EC50-Hep2-Envision protocols. […]

Row | SMILES | inhibition at 0.5 µM [%]
1 | Cc1cn2nc([C@@H]3CCCCN3C(=O)c3ncc(Cl)cc3C(F)(F)F)cc2nc1N1CC[C@H](N)C1 [Compound 104] | 56
2 | Cc1cn2nc([C@@H]3CCCCN3C(=O)c3ncc(C(F)(F)F)cc3Cl)cc2nc1N1CC[C@H](N)C1 [Compound 105] | 31
3 | Cc1cn2nc([C@@H]3CCCCN3C(=O)c3cc(Cl)ccc3C(F)(F)F)cc2nc1N1CC[C@H](N)C1 [Compound 106] | 100
4 | COc1ccc(F)c(C(=O)N2CCCC[C@H]2c2cc3nc(N4CC[C@H](N)C4)c(C)cn3n2)n1 [Compound 107] | 100
5 | Cc1cn2nc([C@@H]3CCCCN3C(=O)c3cccc4n[nH]cc34)cc2nc1N1CC[C@H](N)C1 [Compound 108] | 99
6 | Cc1cn2nc([C@@H]3CCCCN3C(=O)c3cc(F)ccc3C(F)(F)F)cc2nc1N1CC[C@H](N)C1 [Compound 109] | 100
7 | CCc1ccc(C(=O)N2CCCC[C@H]2c2cc3nc(N4CC[C@H](N)C4)c(C)cn3n2)nc1 [Compound 110] | 36
8 | Cc1ccc(Br)cc1C(=O)N1CCCC[C@H]1c1cc2nc(N3C[C@@H](C#N)[C@@H](O)C3)c(C)cn2n1 [Compound 112] | 100
9 | COc1ccccc1C(=O)N1CCCC[C@H]1c1cc2nc(N3C[C@@H](C#N)[C@@H](O)C3)c(C)cn2n1 [Compound 113] | 100
10 | Cc1cn2nc([C@@H]3CCCCN3C(=O)c3cc(F)c(F)c(Cl)c3F)cc2nc1N1C[C@@H](C#N)[C@@H](O)C1 [Compound 114] | 100
11 | Cc1cn2nc([C@@H]3CCCCN3C(=O)c3ncccc3Cl)cc2nc1N1C[C@@H](C#N)[C@@H](O)C1 [Compound 115] | 98
12 | Cc1cn2nc([C@@H]3CCCCN3C(=O)c3cccc(F)c3Cl)cc2nc1N1C[C@@H](C#N)[C@@H](O)C1 [Compound 116] | 100
13 | Cc1cn2nc([C@@H]3CCCCN3C(=O)c3ccc(C#N)cc3F)cc2nc1N1C[C@@H](C#N)[C@@H](O)C1 [Compound 117] | 46
14 | Cc1cn2nc([C@@H]3CCCCN3C(=O)c3ccc(C)c(F)c3F)cc2nc1N1C[C@@H](C#N)[C@@H](O)C1 [Compound 118] | 99
15 | Cc1ccc(C(F)(F)F)c(C(=O)N2CCCC[C@H]2c2cc3nc(N4C[C@@H](C#N)[C@@H](O)C4)c(C)cn3n2)c1 [Compound 120] | 100
16 | Cc1ccc(C(=O)N2CCCC[C@H]2c2cc3nc(N4C[C@@H](C#N)[C@@H](O)C4)c(C)cn3n2)c(C(F)(F)F)c1 [Compound 121] | 92
17 | Cc1cn2nc([C@@H]3CCCCN3C(=O)c3cc(F)ccc3OC(F)(F)F)cc2nc1N1C[C@@H](C#N)[C@@H](O)C1 [Compound 122] | 100
18 | Cc1cn2nc([C@@H]3CCCCN3C(=O)c3cccc4cn[nH]c34)cc2nc1N1C[C@@H](C#N)[C@@H](O)C1 [Compound 123] | 98
19 | Cc1cn2nc([C@@H]3CCCCN3C(=O)c3c(F)ccc(C)c3F)cc2nc1N1C[C@@H](C#N)[C@@H](O)C1 [Compound 124] | 100
20 | COc1ccc(C(=O)N2CCCC[C@H]2c2cc3nc(N4C[C@@H](C#N)[C@@H](O)C4)c(C)cn3n2)c(F)c1 [Compound 126] | 82
21 | Cc1noc(-c2ccccc2C(=O)N2CCCC[C@H]2c2cc3nc(N4C[C@@H](C#N)[C@@H](O)C4)c(C)cn3n2)n1 [Compound 129] | 87
22 | Cc1cn2nc([C@@H]3CCCCN3C(=O)c3cc(F)cc4c3OCOC4)cc2nc1N1C[C@@H](C#N)[C@@H](O)C1 [Compound 130] | 100
23 | Cc1ccc(C(=O)N2CCCC[C@H]2c2cc3nc(N4C[C@@H](C#N)[C@@H](O)C4)c(C)cn3n2)c(Cl)c1 [Compound 131] | 96
24 | COc1cc2c(cc1C(=O)N1CCCC[C@H]1c1cc3nc(N4C[C@@H](C#N)[C@@H](O)C4)c(C)cn3n1)CCC2 [Compound 132] | 97

Row | SMILES | inhibition at 0.5 µM [%]
25 | Cc1cn2nc([C@@H]3CCCCN3C(=O)c3ccc4cccc(F)c4n3)cc2nc1N1C[C@@H](C#N)[C@@H](O)C1 [Compound 133] | 56
26 | Cc1cn2nc([C@@H]3CCCCN3C(=O)c3[nH]c4c(C)ccc(C)c4c3C)cc2nc1N1C[C@@H](C#N)[C@@H](O)C1 [Compound 134] | 35
27 | Cc1cn2nc([C@@H]3CCCCN3C(=O)c3cccc4ccnn34)cc2nc1N1C[C@@H](C#N)[C@@H](O)C1 [Compound 135] | 100
28 | Cc1cn2nc([C@@H]3CCCCN3C(=O)c3c(Cl)nc4ccccn34)cc2nc1N1C[C@@H](C#N)[C@@H](O)C1 [Compound 136] | 83
29 | Cc1ccc(S(C)(=O)=O)cc1C(=O)N1CCCC[C@H]1c1cc2nc(N3C[C@@H](C#N)[C@@H](O)C3)c(C)cn2n1 [Compound 138] | 65
30 | Cc1cn2nc([C@@H]3CCCCN3C(=O)c3cccc4c3CCCN4)cc2nc1N1C[C@@H](C#N)[C@@H](O)C1 [Compound 139] | 100
31 | Cc1cn2nc([C@@H]3CCCCN3C(=O)c3cccc4c3OCO4)cc2nc1N1C[C@@H](C#N)[C@@H](O)C1 [Compound 140] | 100
32 | Cc1cc(C(=O)N2CCCC[C@H]2c2cc3nc(N4C[C@@H](C#N)[C@@H](O)C4)c(C)cn3n2)c2[nH]ncc2c1 [Compound 143] | 100
33 | Cc1cn2nc([C@@H]3CCCCN3C(=O)c3ccccc3OC3CCCC3)cc2nc1N1C[C@@H](C#N)[C@@H](O)C1 [Compound 144] | 80
34 | CCS(=O)(=O)c1ccc(F)c(C(=O)N2CCCC[C@H]2c2cc3nc(N4C[C@@H](C#N)[C@@H](O)C4)c(C)cn3n2)c1 [Compound 145] | 60
35 | Cc1cn2nc([C@@H]3CCCCN3C(=O)c3ccccc3Cl)cc2nc1N1C[C@@H](C#N)[C@@H](O)C1 [Compound 146] | 100
36 | Cc1cn2nc([C@@H]3CCCCN3C(=O)c3cccc(C(F)(F)F)n3)cc2nc1N1C[C@@H](C#N)[C@@H](O)C1 [Compound 148] | 77
37 | Cc1cn2nc([C@@H]3CCCCN3C(=O)c3ccc(F)c(F)c3C)cc2nc1N1C[C@@H](C#N)[C@@H](O)C1 [Compound 149] | 100
38 | Cc1cn2nc([C@@H]3CCCCN3C(=O)c3ccc(F)cc3F)cc2nc1N1C[C@@H](C#N)[C@@H](O)C1 [Compound 150] | 99
39 | Cc1cn2nc([C@@H]3CCCCN3C(=O)c3cccc4cc[nH]c34)cc2nc1N1C[C@@H](C#N)[C@@H](O)C1 [Compound 151] | 100
40 | Cc1cn2nc([C@@H]3CCCCN3C(=O)c3nc(Cl)ccc3Cl)cc2nc1N1C[C@@H](C#N)[C@@H](O)C1 [Compound 152] | 100
41 | Cc1cc(F)c(F)cc1C(=O)N1CCCC[C@H]1c1cc2nc(N3C[C@@H](C#N)[C@@H](O)C3)c(C)cn2n1 [Compound 153] | 100
42 | Cc1cn2nc([C@@H]3CCCCN3C(=O)c3ncccc3Br)cc2nc1N1C[C@@H](C#N)[C@@H](O)C1 [Compound 154] | 90
43 | Cc1cc(F)ccc1C(=O)N1CCCC[C@H]1c1cc2nc(N3C[C@@H](C#N)[C@@H](O)C3)c(C)cn2n1 [Compound 155] | 100
44 | Cc1ccc(F)cc1C(=O)N1CCCC[C@H]1c1cc2nc(N3C[C@@H](C#N)[C@@H](O)C3)c(C)cn2n1 [Compound 156] | 100
45 | Cc1cn2nc([C@@H]3CCCCN3C(=O)c3c(F)cccc3F)cc2nc1N1C[C@@H](C#N)[C@@H](O)C1 [Compound 157] | 98
46 | Cc1cccnc1C(=O)N1CCCC[C@H]1c1cc2nc(N3C[C@@H](C#N)[C@@H](O)C3)c(C)cn2n1 [Compound 159] | 91
47 | Cc1cn2nc([C@@H]3CCCCN3C(=O)c3cccc(F)n3)cc2nc1N1C[C@@H](C#N)[C@@H](O)C1 [Compound 160] | 71
